Read-outs that look alike come from different tables or passages of the source.
Columns and labels:
[1] = system: amyloid β-protein deposition plaques; test: Micro-PET scan of brain uptake of ^11C-labelled compound in SAMP8 model mice and control mice; assay type: in vivo
Protocol: (§1) SAMP8 (senescence accelerated mouse prone 8) mice are the most common animal model of AD (Alzheimer's disease), in its brain there are a large number of amyloid deposition plaque. In this example, SAMP8 mice were used as model mice, and the normal mice were used as the control mice. Both the model mice and the control mice were 10 months old. The two mice were injected with 6-borono-2-(4-methylaminophenyl)benzothiazole containing ^11C labeling, and the Micro-PET scan is used to study whether 6-borono-2-(4-methylaminophenyl)benzothiazole and amyloid β-protein have specific binding properties. Model mice and control mice weighing 31.5±0.3 g were selected, 31.0±0.6 μCi of ^11C labelled 6-borono-2-(4-methylaminophenyl)benzothiazole were injected thereto, and Micro-PET of Model INVEON from Siemens were used for scan, where the scanning window was 350-650 KeV.
(§2) It is well known to those skilled in the art that the major cause of Alzheimer's disease is that the amyloid β-protein deposition plaques accumulate in the cerebral cortex and hippocampus of the brain. In this example, Micro-PET scanned and compared the brains of the model and control mice using PMOD software. And the absorption of radioactive 6-borono-2-(4-methylaminophenyl)benzothiazole in the cerebral cortex and hippocampus of SAMP8 model mice and control mice was determined, to further illustrate that the compound is capable of specifically binding to amyloid β-protein deposition plaques.

[2] = as above; assay type: in vivo; details: mouse, 31 μCi; for tissue uptake at 5 min: 5 min after injection; for tissue uptake at 15 min: 15 min after injection; for tissue uptake at 25 min: 25 min after injection; for tissue uptake at 35 min: 35 min after injection
Protocol: as §1, §2

[3] = cerebral cortex, other: injected (kind of injection not stated), SAMP8 model mice, read-out: Cerebral cortex uptake of radiopharmaceuticals, Model mice
[4] = cerebral cortex, other: injected (kind of injection not stated), normal control mice, read-out: Cerebral cortex uptake of radiopharmaceuticals, Control mice
[5] = hippocampus, other: injection (kind of injection not stated), SAMP8 model mice, read-out: hippocampus uptake of radiopharmaceuticals, Model mice
[6] = hippocampus, other: injection (kind of injection not stated), normal control mice, read-out: hippocampus uptake of radiopharmaceuticals, Control mice

CNc1ccc(-c2nc3ccc(B(O)O)cc3s2)cc1 [6-borono-2-(4-methylaminophenyl)benzothiazole]
Cerebral cortex uptake Ratio (model mice/control mice) ([1]; 5 min after injection): 1.9 | hippocampus uptake Ratio (model mice/control mice) ([1]; 5 min after injection): 1.9 | Cerebral cortex uptake Ratio (model mice/control mice) ([1]; 15 min after injection): 1.9 | hippocampus uptake Ratio (model mice/control mice) ([1]; 15 min after injection): 2.3 | Cerebral cortex uptake Ratio (model mice/control mice) ([1]; 25 min after injection): 2.4 | hippocampus uptake Ratio (model mice/control mice) ([1]; 25 min after injection): 3.2 | brain radiopharmaceutical absorption in PET image (FIG. 4), SAMP8 model mouse relative to control mice ([1]; 30 min after injection): accumulated a large amount of radiopharmaceuticals | Cerebral cortex uptake Ratio (model mice/control mice) ([1]; 35 min after injection): 2.7 | hippocampus uptake Ratio (model mice/control mice) ([1]; 35 min after injection): 3.2 | tissue uptake at 5 min [2, 3]: 3.03 %ID/g | tissue uptake at 15 min [2, 3]: 2.88 %ID/g | tissue uptake at 25 min [2, 3]: 2.79 %ID/g | tissue uptake at 35 min [2, 3]: 2.68 %ID/g | tissue uptake at 5 min [2, 4]: 1.61 %ID/g | tissue uptake at 15 min [2, 4]: 1.48 %ID/g | tissue uptake at 25 min [2, 4]: 1.17 %ID/g | tissue uptake at 35 min [2, 4]: 0.99 %ID/g | tissue uptake at 5 min [2, 5]: 3.44 %ID/g | tissue uptake at 15 min [2, 5]: 3.5 %ID/g | tissue uptake at 25 min [2, 5]: 3.45 %ID/g | tissue uptake at 35 min [2, 5]: 3.27 %ID/g | tissue uptake at 5 min [2, 6]: 1.8 %ID/g | tissue uptake at 15 min [2, 6]: 1.49 %ID/g | tissue uptake at 25 min [2, 6]: 1.09 %ID/g | tissue uptake at 35 min [2, 6]: 1.01 %ID/g

Source: US10709783B2, “Neutron capture therapy system for eliminating amyloid β-protein” (NEUBORON MEDTECH LTD., priority 2015, dated 2020)
